Source: patent publication US10654834B2 (Venenum Biodesign, LLC, priority 2016, dated 2020)

Assays:
Type in all cases: cell-based
human TGR5 receptor = target: T1, human TGR5 receptor (Homo sapiens, UniProt Q8TDU6); assay: Human TGR5 cAMP production assay (hTGR5-CHO cells, DiscoveRx cAMP XS+ kit); conditions: luminescent cAMP assay, read-out: Human TGR5 Lum. cAMP Activity (EC50)
T1 construct: host or cells: CHO-K1 (hTGR5-CHO)
T1 sequence (Q8TDU6 1-330): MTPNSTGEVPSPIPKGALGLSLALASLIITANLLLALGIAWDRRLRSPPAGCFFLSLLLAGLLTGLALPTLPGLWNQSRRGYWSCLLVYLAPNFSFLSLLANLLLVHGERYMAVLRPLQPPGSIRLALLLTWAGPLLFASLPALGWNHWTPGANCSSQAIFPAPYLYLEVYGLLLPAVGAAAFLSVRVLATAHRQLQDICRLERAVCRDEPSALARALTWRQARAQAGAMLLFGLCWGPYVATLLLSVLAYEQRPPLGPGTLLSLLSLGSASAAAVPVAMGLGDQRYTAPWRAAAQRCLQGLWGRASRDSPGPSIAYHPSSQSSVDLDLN
Method in brief: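 CHO-K1 cells stably expressing hTGR5, in PBS with IBMX and cAMP antibody, treated with half-log compound dilutions for 1 h at room temperature. cAMP measured by enzyme-fragment complementation luminescence after overnight detection; EC50 values reported.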

Mouse STC-1 cells = assay: STC-1 GLP-1 assay (GLP-1 secretion); conditions: Mouse STC-1 cells, GLP-1 secretion, 2 h; read-out: Mouse STC-1 HTRF GLP-1 Activity (EC50)
Description: Compounds of the present invention were evaluated for their ability to induce GLP-1 production in mouse intestinal neuroendocrine tumor cells.
Mouse STC-1 cells were cultured and maintained in high glucose DMEM (Sigma #5796) supplemented with 15% horse serum, 5% Fetal Bovine Serum (FBS), 1%° penicillin/streptomycin, and 2 mM L-alanine L-glutamine (GlutaMax). Two days prior to analysis of GLP-1 secretion cells were harvested using Accutase (Sigma), spun down then resuspended in high glucose DMEM media containing 2 mM L-alanine L-glutamine (GlutaMax), 10% charcoal-dextran stripped FBS, and 50 μg/mL Gentamicin, at a density of 100,000° cells/mL. 100 μL of cell suspension was added to each well of a 96-well Poly-D-Lysine coated culture plate (Sigma; cat #2382493) and was incubated at 37° C. with 5% CO2.
Compounds were initially diluted in 100% DMSO (12-point serial dilution by half logs) in a 96-well plate and then were further diluted 1:500 in Hanks' Balanced Salt Solution (HBSS) containing protease inhibitor cocktail, DPP-IV inhibitor, and 0.1% fatty acid free bovine serum albumin. On the day of the experiment cells were washed once with HBSS. After wash, 100 μL of test compound was added to each well. The plate was incubated at 37° C. with 5% CO2 for 2° h. Supernatants were collected and GLP-1 secretion was measured using the Cisbio™ Active GLP-1 HTRF Assay Kit (CisBio). Briefly, Anti-GLP-1-d2 conjugate and Anti-GLP-1 Terbium Cryptate conjugate stock solutions were prepared as per kit instructions. The two solutions were pre-mixed and 10 μL were transferred to a 384-well low volume plate (Greiner; cat #784075). 10 μL of collected supernatants were added to wells already containing the conjugate solution. The plate was covered and incubated at room temperature overnight. The plate was read on an Envision™ plate reader (PerkinElmer).
In Table 53, EC50 values were obtained from the STC-1 GLP-1 production assay for compounds of the present invention are summarized.

mouse TGR5 receptor = target: T2, mouse TGR5 receptor (Mus musculus, UniProt Q80SS6); assay: Mouse TGR5 HTRF cAMP production assay (HEK293-EBNA cells, Cisbio cAMP HiRange kit); conditions: HEK293-EBNA cells overexpressing mouse TGR5, HTRF cAMP assay
T2 construct: host or cells: HEK293-EBNA (293 c18, ATCC CRL10852)
T2 sequence (Q80SS6 1-329): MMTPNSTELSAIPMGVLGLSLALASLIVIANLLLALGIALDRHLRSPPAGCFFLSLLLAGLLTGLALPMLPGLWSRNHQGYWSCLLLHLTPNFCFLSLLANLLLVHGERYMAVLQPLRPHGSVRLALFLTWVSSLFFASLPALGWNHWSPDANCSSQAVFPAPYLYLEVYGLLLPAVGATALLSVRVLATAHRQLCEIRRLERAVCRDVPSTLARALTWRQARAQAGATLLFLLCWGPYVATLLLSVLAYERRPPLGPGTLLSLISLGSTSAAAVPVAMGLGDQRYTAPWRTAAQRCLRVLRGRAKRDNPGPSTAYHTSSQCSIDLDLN
Method in brief: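 HEK293-EBNA cells stably expressing mouse TGR5 (episomal vector) were suspended in serum-free DMEM with 500 μM IBMX and exposed to 12-point half-log compound dilutions for 1 h at room temperature. cAMP was detected by HTRF (d2-cAMP/anti-cAMP cryptate, 1 h, room temperature), giving EC50 from duplicates.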

SMILES | EC50 (human TGR5 receptor) | EC50 (Mouse STC-1 cells) | EC50 (mouse TGR5 receptor)
N#Cc1ccc(CCNC(=O)[C@@H]2CCCN2c2cc(N3CCC(CO)CC3)cc(C(F)(F)F)n2)cc1 [Compound 38] | < 100 nM | 100 to 999 nM | < 100 nM
N#Cc1ccc(CCNC(=O)[C@@H]2CCN2c2cc(N3CCC(CCC(=O)O)CC3)nc(C(F)(F)F)n2)cc1 [Compound 227, (S)-3-(1-(6-(2-((4-cyanophenethyl)carbamoyl)azetidin-1-yl)-2-(trifluoromethyl)pyrimidin-4-yl)piperidin-4-yl)propanoic acid] | < 100 nM | 100 to 999 nM | < 100 nM
N#CCCN1CCN(c2cc(N3CCC[C@H]3C(=O)NCCc3ccc(C(F)(F)F)cc3)nc(C(F)(F)F)n2)CC1 [Compound 10] | < 100 nM | 100 to 999 nM | < 100 nM
COc1cc(C(F)(F)F)ccc1CCNC(=O)[C@@H]1CCN1c1cc(N2CCC(CCCC(=O)O)CC2)nc(C(F)(F)F)n1 [Compound 240, (S)-4-(1-(6-(2-((2-methoxy-4-(trifluoromethyl)phenethyl)carbamoyl)azetidin-1-yl)-2-(trifluoromethyl)pyrimidin-4-yl)piperidin-4-yl)butanoic acid] | < 100 nM | < 100 nM | < 100 nM
N#CCCN1CCN(c2cc(N3CC[C@H]3C(=O)NCCc3ccc(C#N)cc3)nc(C(F)(F)F)n2)CC1 [Compound 229, (S)-1-(6-(4-(2-cyanoethyl)piperazin-1-yl)-2-(trifluoromethyl)pyrimidin-4-yl)-N-(4-cyanophenethyl)azetidine-2-carboxamide] | < 100 nM | 100 to 999 nM | < 100 nM
COc1cc(C(F)(F)F)ccc1CCNC(=O)[C@@H]1CCN1c1cc(N2CCC(CCO)CC2)nc(C(F)(F)F)n1 [Compound 238, (5)-1-(6-(4-(2-hydroxyethyl)piperidin-1-yl)-2-(trifluoromethyl)pyrimidin-4-yl)-N-(2-methoxy-4-(trifluoromethyl)phenethyl)azetidine-2-carboxamide] | < 100 nM | 100 to 999 nM | < 100 nM
CN(C)CCC1CCN(c2cc(N3CC[C@H]3C(=O)NCCc3ccc(C#N)cc3)nc(C(F)(F)F)n2)CC1 [Compound 228, (S)-N-(4-cyanophenethyl)-1-(6-(4-(2-(dimethylamino)ethyl)piperidin-1-yl)-2-(trifluoromethyl)pyrimidin-4-yl)azetidine-2-carboxamide] | < 100 nM | 100 to 999 nM | < 100 nM
N#CCCC1CCN(c2cc(N3CC[C@H]3C(=O)NCCc3ccc(C#N)cc3)nc(C(F)(F)F)n2)CC1 [Compound 230, (S)-1-(6-(4-(2-cyanoethyl)piperidin-1-yl)-2-(trifluoromethyl)pyrimidin-4-yl)-N-(4-cyanophenethyl)azetidine-2-carboxamide] | < 100 nM | 100 to 999 nM | < 100 nM

Further lines, results first:

EC50 (human TGR5 receptor) | EC50 (Mouse STC-1 cells) | EC50 (mouse TGR5 receptor) | SMILES
< 100 nM | < 100 nM | < 100 nM | CCOC(=O)CCNC(=O)NCCC1CCN(c2cc(N3CCC[C@@H](C(=O)NCCc4ccc(C#N)cc4)C3)nc(C(F)(F)F)n2)CC1 [Compound 346, (R)-ethyl 3-(3-(2-(1-(6-(3-((4-cyanophenethyl)carbamoyl)piperidin-1-yl)-2-(trifluoromethyl)pyrimidin-4-yl)piperidin-4-yl)ethyl)ureido)propanoate]
100 to 999 nM | 100 to 999 nM | < 100 nM | N[C@@H](CO)C(=O)N1CCN(c2cc(N3CCC[C@@H](C(=O)NCCc4ccc(C(F)(F)F)cc4)C3)nc(C(F)(F)F)n2)CC1 [Compound 342, (R)-1-(6-(4-((S)-2-amino-3-hydroxypropanoyl)piperazin-1-yl)-2-(trifluoromethyl)pyrimidin-4-yl)-N-(4-(trifluoromethyl)phenethyl)piperidine-3-carboxamide]
< 100 nM | 100 to 999 nM | < 100 nM | CN(C)CCN1CCN(c2cc(N3CCC[C@@H](C(=O)NCCc4ccc(C#N)cc4)C3)nc(C(F)(F)F)n2)CC1 [Compound 333, (R)-N-(4-cyanophenethyl)-1-(6-(4-(2-(dimethylamino)ethyl)piperazin-1-yl)-2-(trifluoromethyl)pyrimidin-4-yl)piperidine-3-carboxamide]
< 100 nM | 100 to 999 nM | < 100 nM | N#Cc1ccc(CCNC(=O)[C@@H]2CCN2c2cc(N3CCC(CCC(=O)NCCS(=O)(=O)O)CC3)nc(C(F)(F)F)n2)cc1 [Compound 262]
< 100 nM | 100 to 999 nM | < 100 nM | N#Cc1ccc(CCNC(=O)[C@@H]2CCCN2c2cc(N3CCC(CCNS(=O)(=O)CCNC(=O)NCCC(=O)O)CC3)nc(C(F)(F)F)n2)cc1 [Compound 371, (S)-3-(3-(3-((2-(1-(6-(2-((4-cyanophenethyl)carbamoyl)pyrrolidin-1-yl)-2-(trifluoromethyl)pyrimidin-4-yl)piperidin-4-yl)ethyl)amino)-2-sulfonyl)ethylureido)propanoic acid]
< 100 nM | 100 to 999 nM | < 100 nM | COCCN1CCN(c2cc(N3CCC[C@@H](C(=O)NCCc4ccc(C(F)(F)F)cc4)C3)nc(C(F)(F)F)n2)CC1 [Compound 328, (R)-1-(6-(4-(2-methoxyethyl)piperazin-1-yl)-2-(trifluoromethyl)pyrimidin-4-yl)-N-(4-(trifluoromethyl)phenethyl)piperidine-3-carboxamide]
